Assay results as given in US7994209B2, “3-phenoxymethylpyrrolidine compounds” (Theravance, Inc., priority 2009, dated 2011).

Assays:
hNET [1] = target: T1, hNET (Homo sapiens, UniProt P23975); experiment: hNET neurotransmitter uptake assay (3H-NE), Assay 2; type: cell-based; design: expressed in transfected cells; host or cells: HEK-293; conditions: norepinephrine reuptake inhibition, 3H-NE uptake, HEK-293 hNET cells (values without asterisk); read-out: NET pIC50 (converted)
hSERT [2] = target: T2, hSERT (Homo sapiens, UniProt P31645); experiment: hSERT neurotransmitter uptake assay (3H-5-HT), Assay 2; type: cell-based; design: expressed in transfected cells; host or cells: HEK-293; conditions: serotonin reuptake inhibition, 3H-5-HT uptake, HEK-293 hSERT cells (values without asterisk); read-out: SERT pIC50 (converted)
hSERT [3] = target: T2, hSERT; experiment: hSERT membrane radioligand binding assay (3H-citalopram), Assay 1; conditions: SERT pKi, hSERT HEK-293 membranes, 1.0 nM 3H-citalopram; values given as lower bounds
hNET [4] = target: T1, hNET; experiment: hNET membrane radioligand binding assay (3H-nisoxetine), Assay 1

T1 sequence (P23975 whole entry): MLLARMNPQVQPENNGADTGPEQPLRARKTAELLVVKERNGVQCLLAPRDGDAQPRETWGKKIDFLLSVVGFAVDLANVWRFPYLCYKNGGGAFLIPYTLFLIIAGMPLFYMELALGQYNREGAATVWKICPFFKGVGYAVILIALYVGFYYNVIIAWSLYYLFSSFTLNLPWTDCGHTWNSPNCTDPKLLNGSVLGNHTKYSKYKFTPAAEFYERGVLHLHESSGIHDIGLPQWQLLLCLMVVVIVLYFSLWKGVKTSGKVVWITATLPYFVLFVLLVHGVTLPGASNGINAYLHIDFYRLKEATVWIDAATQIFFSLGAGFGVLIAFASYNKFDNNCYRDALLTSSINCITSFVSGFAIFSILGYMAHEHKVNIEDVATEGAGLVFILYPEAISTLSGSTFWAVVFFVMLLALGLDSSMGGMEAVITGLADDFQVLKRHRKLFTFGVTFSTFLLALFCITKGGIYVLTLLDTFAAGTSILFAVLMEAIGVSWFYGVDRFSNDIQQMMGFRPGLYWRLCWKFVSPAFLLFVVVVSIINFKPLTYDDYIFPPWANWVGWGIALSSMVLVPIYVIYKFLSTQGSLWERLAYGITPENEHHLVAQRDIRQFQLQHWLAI
T2 sequence (P31645 whole entry): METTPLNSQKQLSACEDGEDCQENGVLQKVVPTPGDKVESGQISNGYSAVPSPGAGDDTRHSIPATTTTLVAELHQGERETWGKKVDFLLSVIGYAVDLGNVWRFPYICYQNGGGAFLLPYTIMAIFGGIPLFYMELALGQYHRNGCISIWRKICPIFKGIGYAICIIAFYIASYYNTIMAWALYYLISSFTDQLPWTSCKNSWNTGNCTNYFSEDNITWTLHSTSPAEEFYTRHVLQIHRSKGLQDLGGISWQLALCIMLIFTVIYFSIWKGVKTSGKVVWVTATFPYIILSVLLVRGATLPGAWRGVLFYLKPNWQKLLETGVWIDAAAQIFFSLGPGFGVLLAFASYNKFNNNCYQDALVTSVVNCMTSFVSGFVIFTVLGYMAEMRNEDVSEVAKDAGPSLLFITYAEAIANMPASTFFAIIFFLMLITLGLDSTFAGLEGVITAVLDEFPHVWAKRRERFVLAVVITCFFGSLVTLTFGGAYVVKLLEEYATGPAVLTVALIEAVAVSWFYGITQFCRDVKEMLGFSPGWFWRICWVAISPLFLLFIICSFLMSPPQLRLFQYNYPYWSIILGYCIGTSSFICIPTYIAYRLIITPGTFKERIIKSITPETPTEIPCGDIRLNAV

| Compound | IC50 (hNET [1]) [nM] | IC50 (hSERT [2]) [nM] | Ki (hSERT [3]) [nM] | Ki (hNET [4]) [nM] |
| --- | --- | --- | --- | --- |
| CC(C)C[C@H](Oc1cccc(Cl)c1C(F)(F)F)[C@H]1CCNC1 [Example 10-36, (S)-3-[(S)-1-(3-Chloro-2-trifluoromethylphenoxy)-3-methylbutyl]pyrrolidine] | ≤ 10 | ≤ 10 | ≤ 10 | ≤ 10 |
| CC(C)CC(Oc1ccc(Cl)cc1F)C1CCNC1 (centres unmarked) [Example 10-39, 3-[1-(4-Chloro-2-fluorophenoxy)-3-methylbutyl]pyrrolidine] | ≤ 10 | ≤ 10 | ≤ 10 | ≤ 10 |
| CC(C)C[C@H](Oc1ccc(Cl)cc1F)[C@H]1CCNC1 [Example 10-41, (S)-3-[(S)-1-(4-Chloro-2-fluorophenoxy)-3-methylbutyl]pyrrolidine] | ≤ 10 | ≤ 10 | ≤ 10 | ≤ 10 |
| CC(C)C[C@H](Oc1ccc(Cl)cc1Cl)[C@H]1CCNC1 [Example 10-42, (S)-3-[(S)-1-(2,4-Dichlorophenoxy)-3-methylbutyl]pyrrolidine] | ≤ 10 | ≤ 10 | ≤ 10 | ≤ 10 |
| CC(C)C[C@@H](Oc1ccc(Cl)cc1Cl)[C@H]1CCNC1 [Example 10-44, (S)-3-[(R)-1-(2,4-Dichlorophenoxy)-3-methylbutyl]pyrrolidine] | ≤ 10 | ≤ 10 | ≤ 10 | ≤ 100 |
| Cc1cc(Cl)ccc1O[C@H](CC(C)C)[C@H]1CCNC1 [Example 10-45, (S)-3-[(R)-1-(4-Chloro-2-methylphenoxy)-3-methylbutyl]pyrrolidine] | ≤ 10 | ≤ 10 | ≤ 10 | ≤ 10 |
| Cc1cc(Cl)ccc1O[C@@H](CC(C)C)[C@H]1CCNC1 [Example 10-47, (S)-3-[(S)-1-(4-Chloro-2-methylphenoxy)-3-methylbutyl]pyrrolidine] | ≤ 10 | ≤ 10 | ≤ 10 | ≤ 10 |
| CC(C)CC(Oc1ccc(Cl)cc1C(F)(F)F)C1CCNC1 (centres unmarked) [Example 10-48, 3-[1-(4-Chloro-2-trifluoromethylphenoxy)-3-methylbutyl]pyrrolidine] | ≤ 10 | ≤ 10 | ≤ 10 | ≤ 10 |
| COc1cc(Cl)ccc1O[C@@H](CC(C)C)[C@H]1CCNC1 [Example 10-49, (S)-3-[(S)-1-(4-Chloro-2-methoxyphenoxy)-3-methylbutyl]pyrrolidine] | ≤ 10 | ≤ 10 | ≤ 10 | ≤ 10 |
| COc1ccc(F)cc1O[C@@H](CC(C)C)[C@H]1CCNC1 [Example 10-50, (S)-3-[(S)-1-(5-Fluoro-2-methoxyphenoxy)-3-methylbutyl]pyrrolidine] | ≤ 10 | ≤ 100 | ≤ 10 | ≤ 10 |
| CC(C)C[C@H](Oc1c(F)cccc1Cl)[C@H]1CCNC1 [Example 10-52, (S)-3-[(S)-1-(2-Chloro-6-fluorophenoxy)-3-methylbutyl]pyrrolidine] | ≤ 10 | ≤ 10 | ≤ 10 | ≤ 10 |
| CC(C)CC(Oc1c(Cl)cccc1Cl)C1CCNC1 (centres unmarked) [Example 10-53, 3-[1-(2,6-Dichlorophenoxy)-3-methylbutyl]pyrrolidine] | ≤ 10 | ≤ 10 | ≤ 10 | ≤ 10 |
| CC(C)C[C@H](Oc1c(Cl)cccc1Cl)[C@H]1CCNC1 [Example 10-54, (S)-3-[(S)-1-(2,6-Dichlorophenoxy)-3-methylbutyl]pyrrolidine] | ≤ 10 | ≤ 10 | ≤ 10 | ≤ 10 |
| CC(C)C[C@H](Oc1cc(F)c(F)cc1F)[C@H]1CCNC1 [Example 10-57, (S)-3-[(S)-3-Methyl-1-(2,4,5-trifluorophenoxy)butyl]pyrrolidine] | ≤ 10 | ≤ 100 | ≤ 10 | ≤ 10 |
| CC(C)CC(Oc1c(Cl)ccc(Cl)c1F)C1CCNC1 (centres unmarked) [Example 10-58, 3-[1-(3,6-Dichloro-2-fluorophenoxy)-3-methylbutyl]pyrrolidine] | ≤ 10 | ≤ 10 | ≤ 10 | ≤ 10 |
| CC(C)CC(Oc1c(F)ccc(Cl)c1F)C1CCNC1 (centres unmarked) [Example 10-59, 3-[1-(3-Chloro-2,6-difluorophenoxy)-3-methylbutyl]pyrrolidine] | ≤ 10 | ≤ 10 | ≤ 10 | ≤ 10 |
| CC(C)C[C@H](Oc1ccc(Cl)c(Cl)c1F)[C@H]1CCNC1 [Example 10-61, (S)-3-[(S)-1-(3,4-Dichloro-2-fluorophenoxy)-3-methylbutyl]pyrrolidine] | ≤ 10 | ≤ 10 | ≤ 10 | ≤ 10 |
